# From US10239887B2, “Positive allosteric modulators of the muscarinic acetylcholine receptor M4” (Vanderbilt University, priority 2016, dated 2019)
# Structures can show the parent of a compound that is named as a salt. Where two headings read alike, the source gives them in different places.
# How the values were obtained:
# human mAChR M4 = molecular target: T1, human mAChR M4 (Homo sapiens, UniProt P08173); test: mAChR M4 cell-based functional assay (calcium flux), human M4; conditions: for Emax: % ACh maximum at 30 μM
# T1 sequence (P08173 1-479): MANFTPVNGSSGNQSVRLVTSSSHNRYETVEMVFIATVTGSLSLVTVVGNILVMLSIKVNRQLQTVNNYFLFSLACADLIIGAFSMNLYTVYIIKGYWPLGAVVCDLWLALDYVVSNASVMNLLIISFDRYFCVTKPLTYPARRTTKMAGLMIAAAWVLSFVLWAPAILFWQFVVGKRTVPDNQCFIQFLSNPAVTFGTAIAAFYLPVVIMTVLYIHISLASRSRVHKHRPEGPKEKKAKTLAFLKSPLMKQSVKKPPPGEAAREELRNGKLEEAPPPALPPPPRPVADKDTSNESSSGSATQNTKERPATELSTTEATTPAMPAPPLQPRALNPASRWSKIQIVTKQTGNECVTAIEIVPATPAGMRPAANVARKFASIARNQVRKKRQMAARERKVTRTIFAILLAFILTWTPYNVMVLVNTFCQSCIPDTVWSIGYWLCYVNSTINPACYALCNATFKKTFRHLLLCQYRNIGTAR
# rat mAChR M4 = molecular target: T2, rat mAChR M4 (Rattus norvegicus, UniProt P08485); test: mAChR M4 cell-based functional assay (calcium flux), rat M4; design: Emax: dose or concentration left out as unconfirmed; conditions: for EC50: read-out: Rat M4 EC50, CHO-K1 rM4-Gqi5 cells, calcium flux, increase in EC20 acetylcholine response
# T2 sequence (P08485 1-478): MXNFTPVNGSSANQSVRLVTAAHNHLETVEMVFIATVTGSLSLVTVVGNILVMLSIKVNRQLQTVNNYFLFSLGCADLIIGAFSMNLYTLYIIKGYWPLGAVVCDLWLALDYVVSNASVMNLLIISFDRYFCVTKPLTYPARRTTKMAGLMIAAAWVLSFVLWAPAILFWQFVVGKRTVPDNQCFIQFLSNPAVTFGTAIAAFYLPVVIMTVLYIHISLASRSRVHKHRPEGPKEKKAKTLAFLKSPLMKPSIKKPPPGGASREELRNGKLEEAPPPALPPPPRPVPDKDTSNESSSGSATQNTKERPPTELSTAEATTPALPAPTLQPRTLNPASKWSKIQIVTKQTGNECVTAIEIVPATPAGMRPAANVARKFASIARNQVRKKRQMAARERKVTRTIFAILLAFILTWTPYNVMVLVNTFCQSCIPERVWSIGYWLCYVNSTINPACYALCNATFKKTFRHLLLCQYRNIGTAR
# [1] = Human M4 EC50, CHO-K1 hM4-Gqi5 cells, calcium flux, increase in EC20 acetylcholine response
# [2] = Human M4 EC50 (nM), Table 11, calcium flux, PAM activity with EC20 acetylcholine
Compound,Emax (human mAChR M4; Human M4) [%],Emax (rat mAChR M4) [%],EC50 (human mAChR M4; [2]) [nM],Emax (human mAChR M4; Table 11) [%],other results
"Cc1nnc2sc3c(N(C)C)ncnc3c2c1C [Compound 1, N,N,3,4-tetramethylpyrimido[4′,5′:4,5]thieno[2,3-c]pyridazin-8-amine]",62,79,–,–,EC50 (human mAChR M4; [1]): 638 nM; EC50 (rat mAChR M4): 0.724 µM
"Cc1nnc2sc3c(NC4CCCCC4)ncnc3c2c1C [Compound 2, N-cyclohexyl-3,4-dimethylpyrimido[4′,5′:4,5] thieno[2,3-c] pyridazin-8-amine]",52,62,–,–,EC50 (human mAChR M4; [1]): 724 nM; EC50 (rat mAChR M4): 0.836 µM
"Cc1nnc2sc3c(NC4CCOCC4)ncnc3c2c1C [Compound 3, 3,4-dimethyl-N-(tetrahydro-2H-pyran-4-yl) pyrimido[4′,5′:4,5] thieno[2,3-c]pyridazin-8-amine]",45,60,–,–,EC50 (human mAChR M4; [1]): 446 nM; EC50 (rat mAChR M4): 0.521 µM
"Cc1nnc2sc3c(N4CCCCC4)ncnc3c2c1C [Compound 4, 3,4-dimethyl-8-(piperidin-1-yl)pyrimido[4′,5′:4,5]thieno [2,3-c]pyridazine]",44,58,–,–,EC50 (human mAChR M4; [1]): 120 nM; EC50 (rat mAChR M4): 0.215 µM
"Cc1nnc2sc3c(NC4CCC4)ncnc3c2c1C [Compound 5, N-cyclobutyl-3,4-dimethylpyrimido[4′,5′:4,5] thieno[2,3-c]pyridazin-8-amine]",73,80,–,–,EC50 (rat mAChR M4): 0.112 µM
"Cc1nnc2sc3c(N4CCCC4)ncnc3c2c1C [Compound 6, 3,4-dimethyl-8-(pyrrolidin-1-yl)pyrimido[4′,5′:4,5]thieno [2,3-c]pyridazine]",68,82,–,–,–
"Cc1nnc2sc3c(NC4CN(c5ncc(C(F)(F)F)cn5)C4)ncnc3c2c1C [Compound 7, 3,4-dimethyl-N-(1-(5-(trifluoromethyl)pyrimidin-2-yl)azetidin-3-yl)pyrimido[4′,5′:4,5] thieno[2,3-c]pyridazin-8-amine]",74,86,–,–,EC50 (human mAChR M4; [1]): 251 nM; EC50 (rat mAChR M4): 0.03 µM
"Cc1nnc2sc3c(N4CCN(C5CC5)CC4)ncnc3c2c1C [Compound 8, 8-(4-cyclopropylpiperazin-1-yl)-3,4-dimethylpyrimido [4′,5′:4,5]thieno[2,3-c] pyridazine]",30,42,–,–,EC50 (human mAChR M4; [1]): 616 nM; EC50 (rat mAChR M4): 0.7 µM
"Cc1nnc2sc3c(N4CCC4)ncnc3c2c1C [Compound 9, 8-(azetidin-1-yl)-3,4-dimethylpyrimido [4′,5′:4,5]thieno[2,3-c] pyridazine]",68,75,–,–,EC50 (human mAChR M4; [1]): 351 nM
"Cc1nnc2sc3c(N4CC5CC5C4)ncnc3c2c1C (centres unmarked) [Compound 10, 8-(3-azabicyclo[3.1.0]hexan-3-yl)-3,4-dimethylpyrimido [4′,5′:4,5]thieno[2,3-c] pyridazine]",81,86,–,–,EC50 (human mAChR M4; [1]): 21 nM; EC50 (rat mAChR M4): 0.036 µM
"Cc1nnc2sc3c(N4CC[C@H](Oc5cnccn5)C4)ncnc3c2c1C [Compound 361, 3,4-dimethyl-8-[(3S)-3-pyrazin-2-yloxypyrrolidin-1-yl]pyrimido[4′,5′:4,5] thieno[2,3-c]pyridazine dihydrochloride]",–,–,1470,53.9,–
"Cc1nnc2sc3c(N4CC[C@H](Oc5ccc(C(F)(F)F)nc5)C4)ncnc3c2c1C [Compound 362, 3,4-dimethyl-8-[(3S)-3-[[6-(trifluoromethyl)-3-pyridyl]oxy]pyrrolidin-1-yl] pyrimido[4′,5′:4,5]thieno [2,3-c]pyridazine dihydrochloride]",–,–,519,75.7,–
"Cc1nnc2sc3c(N4CC[C@H](Oc5ccc(C#N)cc5)C4)ncnc3c2c1C [Compound 363, 4-[(3S)-1-(3,4-dimethylpyrimido[4′,5′:4,5]thieno[2,3-c]pyridazin-8-yl)pyrrolidin-3-yl] oxybenzonitrile dihydrochloride]",–,–,298,64.8,–
"Cc1ccc(O[C@H]2CCN(c3ncnc4c3sc3nnc(C)c(C)c34)C2)cn1 [Compound 364, 3,4-dimethyl-8-[(3S)-3-[(6-methyl-3-pyridyl)oxy]pyrrolidin-1-yl]pyrimido [4′,5′:4,5]thieno[2,3-c] pyridazine dihydrochloride]",–,–,423,50.7,–
"Cc1cc(O[C@H]2C[C@@H](C)N(c3ncnc4c3sc3nnc(C)c(C)c34)C2)ccn1 [Compound 365, 3,4-dimethyl-8-[(2R,4S)-2-methyl-4-[(2-methyl-4-pyridyl)oxy]pyrrolidin-1-yl]pyrimido [4′,5′:4,5]thieno[2,3-c] pyridazine dihydrochloride]",–,–,551,65.2,–
"Cc1nnc2sc3c(N4CCC(Oc5ccncc5)(C(F)(F)F)C4)ncnc3c2c1C (centres unmarked) [Compound 366, 3,4-dimethyl-8-[3-(4-pyridyloxy)-3-(trifluoromethyl)pyrrolidin-1-yl]pyrimido[4′,5′:4,5]thieno[2,3-c]pyridazine dihydrochloride]",–,–,1360,77.7,–
"COC(C)(C)c1ccc(CNc2ncnc3c2sc2nnc(C)c(C)c23)cc1 [Compound 367, N-[[4-(1-methoxy-1-methyl-ethyl)phenyl]methyl]-3,4-dimethyl-pyrimido[4′,5′:4,5] thieno[2,3-c]pyridazin-8-amine]",–,–,–,100,–
"Cc1nnc2sc3c(NCc4ccc(C(C)(C)CO)cc4F)ncnc3c2c1C [Compound 368, 2-[4-[[(3,4-dimethylpyrimido[4′,5′:4,5]thieno[2,3-c]pyridazin-8-yl)amino]methyl]-3-fluoro-phenyl]-2-methyl-propan-1-ol]",–,–,766,98,–
"[2H]C([2H])(Nc1ncnc2c1sc1nnc(C)c(C)c12)c1ccc(C(C)(C)O)cc1 [Compound 369, 2-[4-[dideuterio-[(3,4-dimethylpyrimido[4′,5′:4,5]thieno[2,3-c]pyridazin-8-yl)amino]methyl]phenyl] propan-2-ol]",–,–,–,100,–
"[2H]C([2H])([2H])OC(C)(C)c1ccc(CNc2ncnc3c2sc2nnc(C)c(C)c23)cc1 [Compound 370, 3,4-dimethyl-N-[[4-[1-methyl-1-(trideuteriomethoxy)ethyl]phenyl]methyl] pyrimido[4′,5′:4,5]thieno [2,3-c]pyridazin-8-amine]",–,–,326,93.1,–
"Cc1nnc2sc3c(NCc4ccc(C(C)(C)N)cc4)ncnc3c2c1C [Compound 371, N-[[4-(1-amino-1-methyl-ethyl)phenyl]methyl]-3,4-dimethyl-pyrimido[4′,5′:4,5] thieno[2,3-c]pyridazin-8-amine]",–,–,41.6,93.6,–
"Cc1nnc2sc3c(NCc4ccc5c(c4)COC5(C)C)ncnc3c2c1C [Compound 372, N-[(1,1-dimethyl-3H-isobenzofuran-5-yl)methyl]-3,4-dimethyl-pyrimido[4′,5′:4,5]thieno [2,3-c]pyridazin-8-amine]",–,–,–,94.7,–
"Cc1nnc2sc3c(NCc4ccc(C(C)(O)CO)cc4)ncnc3c2c1C (centres unmarked) [Compound 373, 2-[4-[[(3,4-dimethylpyrimido[4′,5′:4,5]thieno[2,3-c]pyridazin-8-yl)amino]methyl]phenyl] propane-1,2-diol]",–,–,–,98,EC50 (human mAChR M4): 69.2 nM
"Cc1nnc2sc3c(NCc4ccc(C5COC5)cc4)ncnc3c2c1C [Compound 374, 3,4-dimethyl-N-[[4-(oxetan-3-yl)phenyl]methyl] pyrimido[4′,5′:4,5]thieno [2,3-c]pyridazin-8-amine]",–,–,45.2,101,–
"Cc1nnc2sc3c(NCc4ccc(C(C)(C)CO)cc4)ncnc3c2c1C [Compound 375, 2-[4-[[(3,4-dimethylpyrimido[4′,5′:4,5]thieno[2,3-c]pyridazin-8-yl)amino]methyl]phenyl]-2-methyl-propan-1-ol]",–,–,138,87.2,–
"CC(=O)OCc1nnc2sc3c(NCc4ccc(C(C)(C)O)cc4)ncnc3c2c1C [Compound 376, [8-[[4-(1-hydroxy-1-methyl-ethyl)phenyl]methylamino]-4-methyl-pyrimido[4′,5′:4,5]thieno[2,3-c]pyridazin-3-yl]methyl acetate]",–,–,–,59.4,–
"Cc1c(CO)nnc2sc3c(NCc4ccc(C(C)(C)O)cc4)ncnc3c12 [Compound 377, 2-[4-[[[3-(hydroxymethyl)-4-methyl-pyrimido[4′,5′:4,5]thieno[2,3-c]pyridazin-8-yl]amino]methyl]phenyl]propan-2-ol]",–,–,–,93.6,–
